This is an account of results in ChEMBL document CHEMBL1140126, “Optimizing natural products by biosynthetic engineering: discovery of nonquinone Hsp90 inhibitors” (J Med Chem, 2008).

The test system of data set [1] is Mus musculus. As to the kind of experiment: Toxicity in nude mouse xenografted with human MAXF401 cells assessed as median body weight loss at 85 mg/kg/day, ip. In kind it is organism-based. Conditions: in vivo. Also on record: route intraperitoneal. For orientation: A xenograft is tissue or cells of one species grown in another, often human tumour cells in immunodeficient mice.

Data set [2] has as its system Mus musculus. As to the kind of experiment: Toxicity in NMRI nu/nu mouse assessed as body weight loss at 250 mg/kg/day for 5 days. In kind it is organism-based. Conditions: in vivo, 120 h.
Data set [3] has as its system Mus musculus. The experiment in a line: Toxicity in nude mouse xenografted with human MAXF401 cells assessed as median body weight loss on day 21 at 50 mg/kg/day, ip. In kind it is organism-based. Further details: route intraperitoneal. Conditions: in vivo.
Data set [4] is described as follows: Antitumor activity against human MAXF401 cells xenografted in nude mouse assessed as inhibition of tumor growth at 85 mg/kg/day, ip administered alternately for 5 days with 3 days intervals assessed on day 35. In kind it is functional. Conditions: route intraperitoneal.
The nature of data set [5]: Antitumor activity against human MAXF401 cells xenografted in nude mouse assessed as inhibition of tumor growth at 42.5 mg/kg/day, ip administered alternately for 5 days with 3 days intervals assessed on day 21. In kind it is functional. The settings on record: route intraperitoneal.
Data set [6] in a line: Toxicity in NMRI nu/nu mouse assessed as maximum tolerated dose. In kind it is organism-based. Conditions: in vivo.
Data set [7] is described as follows: Antitumor activity against human MAXF401 cells xenografted in nude mouse assessed as inhibition of tumor growth at 50 mg/kg/day, ip administered alternately for 5 days with 3 days intervals assessed on day 28. In kind it is functional. The settings on record: route intraperitoneal.
Data set [8] is described as follows: Solubility at room temperature after 6 hrs by HPLC. In kind it is physicochemical.
The nature of data set [9]: Binding affinity to yeast HSP90. Further details: species or system Saccharomyces cerevisiae.

Structures are written as SMILES. ≈ marks a conversion by molar mass, not a printed value.

Regarding `CO[C@H]1C[C@H](C)Cc2cc(O)cc(c2)NC(=O)/C(C)=C/CC[C@H](C)[C@@H](OC(N)=O)/C(C)=C/[C@H](C)[C@H]1O`, the Activity with Mus musculus [1] turned out to be 3.2%; with Mus musculus [2] it was 3.8%; in the data set with Mus musculus [3], 4.4%. For the same molecule, the figures for the T/C in data set [4], in data set [5] and in data set [7] were 45.3%, 53.9% and 35.6%, respectively. For the same molecule, the MTD in [6] is no less than 250 mg/kg. Moreover, in data set [8], the solubility at 6 h is greater than 200 µM.
In turn, `CO[C@H]1C[C@H](C)[C@@H](O)c2cc(O)cc(c2)NC(=O)/C(C)=C/CC[C@H](C)[C@@H](OC(N)=O)/C(C)=C/[C@H](C)[C@H]1O` displayed a Kd in [9] of 6 nM.
`CO[C@H]1[C@@H](OC)C[C@H](C)[C@@H](OC)C2=CC(=O)C=C(NC(=O)/C(C)=C/C=C\[C@H](C)[C@@H](OC(N)=O)/C(C)=C/[C@@H]1C)C2=O` [MACBECIN] registered a solubility at 6 h in data set [8] of 81 µM (≈ 45.3 µg/mL).
Take `C=CCNC1=C2C[C@@H](C)C[C@H](OC)[C@H](O)[C@@H](C)/C=C(\C)[C@H](OC(N)=O)[C@@H](OC)/C=C\C=C(/C)C(=O)NC(=CC1=O)C2=O` [TANESPIMYCIN]: in [6], the MTD was found to be 50 mg/kg.

Usually T/C stands for the ratio of treated to control. As usually defined, the MTD is the highest dose tested that stayed within the study's limit of toxicity. In general, solubility refers to the concentration that dissolves in the medium under given conditions. Low values mean a poorly soluble substance, high ones a readily soluble substance. The term Kd denotes the free concentration of one partner at which half of the binding sites on the other are occupied at equilibrium, for simple one-to-one binding.
